In patent US20240246940A1, “HETEROARYL DERIVATIVE COMPOUND AND USE THEREOF” (VORONOI INC., priority 2021, published 2024):

Assays:
[1] = tested on: BT-474 cells (HER2 overexpressing cell line); experiment: BT-474 cell proliferation inhibitory activity (CellTiter-Glo, 120 hours); format: cell-based; details: Homo sapiens
Experimental: To evaluate the cell proliferation inhibitory activity of the compound according to the present invention on HER2 and EGFR kinases, the following method was performed using HER2 overexpressing cell lines (SK-BR-3, BT-474, and N-87) and EGFR expressing cell line (HaCaT).
McCOY'S 5A supplemented with 10% FBS was used for SK-BR-3 cells, RPMI-1640 medium supplemented with 20% FBS was used for BT-474 cancer cells, and RPMI-1640 medium supplemented with 10% FBS was used for N-87 cancer cells. DMEM supplemented with 10% FBS was used for HaCaT cells.
For SK-BR-3 cells, 5000 cells were aliquoted into each well of a white clear bottom 96 well plate (Corning) 48 hours before treatment with the compounds of Examples. For BT-474 cells, 5000 cells were aliquoted into each well of a white clear bottom 96 well plate (Corning) 48 hours before treatment with the compounds of Examples. For N-87 cells, 5000 cells were aliquoted into each well of a white clear bottom 96 well plate (Corning) 24 hours before treatment with the compounds of Examples. For HaCaT cells, 3000 cells were aliquoted into each well of a white clear bottom 96 well plate (Corning) 24 hours before treatment with the compounds of Examples. For SK-BR-3 cells and BT-474 cells, the compounds of Examples were diluted in dimethyl sulfoxide (three-fold dilution, a total of 11 concentrations) and injected each in an amount of 1 μl to a final concentration of 0.2 nM to 10 μM. For N-87 cells, the compounds of Examples were diluted in dimethyl sulfoxide (five-fold dilution, a total of 11 concentrations) and injected each in an amount of 0.5 μl to a final concentration of […] to 5 μM. For HaCaT cells, the compounds of Examples were diluted in dimethyl sulfoxide (three-fold dilution, a total of 11 concentrations) and injected each in an amount of 0.5 μl to a final concentration of 0.8 nM to 45 μM. For the measurement of living cells, the cells were stored at room temperature for 10 minutes using CellTiter-Glo cell viability reagent (Promega) after a certain period of time (SK-BR-3: 120 hours, BT-474: 120 hours, N-87: 72 hours, and HaCaT: 72 hours) post treatment with the compounds of Examples, and the luminescence intensity thereof was measured using a reader (SynergyNeo, Biotek). Each test was repeated three times.
The result values were calculated as a cell growth rate (%) compared to those of the control group. A graph was created using the GraphPad Prism version 5.0 program, and GI50 values were calculated.

[2] = tested on: HaCaT cells (EGFR expressing cell line); experiment: HaCaT cell proliferation inhibitory activity (CellTiter-Glo, 72 hours); format: cell-based; details: Homo sapiens
Procedure, shortened: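 GI50 derived from % growth versus control from CellTiter-Glo luminescence, each test run three times. SK-BR-3 and BT-474 are seeded 48 h ahead at 5000/well and dosed at 0.2 nM–10 μM. N-87 (5000/well) gets […]–5 μM and HaCaT (3000/well) gets 0.8 nM–45 μM, both seeded 24 h ahead.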

Row | Structure (SMILES) | GI50 [1] [nM] | GI50 [2] [nM]
1 | C=CC(=O)N1CCC(Oc2cc3c(Nc4cc(-c5c(F)c(F)c(F)c(F)c5F)ccc4OC)ncnc3cc2OC)CC1 [Example 198] | 150 to 1000 | > 1000
2 | C=CC(=O)N1CCC(F)(F)C(Oc2cccc3ncnc(Nc4cc(-c5ccc(F)cc5F)ccc4OC)c23)C1 (stereo not shown) [Example 200, 1-(3-((4-((2′,4′-difluoro-4-methoxy-[1,1′-biphenyl]-3-yl)amino)quinazolin-5-yl)oxy)-4,4-difluoro-piperidin-1-yl)prop-2-en-1-one] | ≤ 150 | ≤ 150
3 | C=CC(=O)N1CCC(F)(F)C(Oc2cc(OC)cc3ncnc(Nc4cc(-c5ccc(F)cc5F)ccc4OC)c23)C1 (stereo not shown) [Example 201, 1-(3-((4-((2′,4′-difluoro-4-methoxy-[1,1′-biphenyl]-3-yl)amino)-7-methoxy-quinazolin-5-yl)oxy)-4,4-difluoro-piperidin-1-yl)prop-2-en-1-one] | ≤ 150 | ≤ 150
4 | C=CC(=O)N1CCC(Oc2cc3c(Nc4cc(-c5ccc(F)c(C(F)(F)F)c5F)ccc4OC)ncnc3cc2OC)CC1 [Example 202, 1-(4-((4-((2′,4′-difluoro-4-methoxy-3-(trifluoro-methyl)′-[1,1′-biphenyl]-3-yl)amino)-7-methoxy-quinazolin-6-yl)oxy)piperidin-1-yl)prop-2-en-1-one] | ≤ 150 | > 1000
5 | C=CC(=O)N1CCC(Oc2cc3c(Nc4cc(-c5ccc(F)c(F)c5F)ccc4OC)ncnc3cc2OC)CC1 [Example 203, 1-(4-((7-methoxy-4-((2′,3′,4′-trifluoro-4-methoxy-[1,1′-biphenyl]-3-yl)amino)quinazolin-6-yl)oxy)piperidin-1-yl)prop-2-en-1-one] | ≤ 150 | 150 to 1000
6 | C=CC(=O)N1CCC(Nc2cc3c(Nc4cc(-c5cccc(C=O)c5)ccc4OC)ncnc3cc2OC)CC1 [Example 209, 3′-((6-((1-acryloyl-piperidin-4-yl)amino)-7-methoxy-quinazolin-4-yl)amino)-4′-methoxy-[1,1′-biphenyl]-3-carbaldehyde] | ≤ 150 | 150 to 1000
7 | C=CC(=O)N1CCC(Oc2cc3c(Nc4cc(-c5ccc(F)c(OC)c5F)ccc4OC)ncnc3cc2OC)CC1 [Example 210, 1-(4-((4-((2′,4′-difluoro-3′,4-dimethoxy-[1,1′-biphenyl]-3-yl)amino)-7-methoxy-quinazolin-6-yl)oxy)piperidin-1-yl)prop-2-en-1-one] | ≤ 150 | 150 to 1000
8 | C=CC(=O)N1CCC(Oc2cc3c(Nc4cc(-c5cc(OC)c(F)cc5F)ccc4OC)ncnc3cc2OC)CC1 [Example 213, 1-(4-((4-((2′,4′-difluoro-4,5′-dimethoxy-[1,1′-biphenyl]-3-yl)amino)-7-methoxy-quinazolin-6-yl)oxy)piperidin-1-yl)prop-2-en-1-one] | ≤ 150 | ≤ 150
9 | C=CC(=O)N1CCC(Oc2cc3c(Nc4cc(-c5ccc(F)c(OCC(F)(F)F)c5)ccc4OC)ncnc3cc2OC)CC1 [Example 214, 1-(4-((4-((4′-fluoro-4-methoxy-3′-(2,2,2-trifluoroethoxy)-[1,1′-biphenyl]-3-yl)amino)-7-methoxy-quinazolin-6-yl)oxy)piperidin-1-yl)prop-2-en-1-one] | ≤ 150 | > 1000
10 | C=CC(=O)N1CCC(Oc2cc3c(Nc4cc(-c5ccc(F)cc5F)ccc4OC)ncnc3cc2OCC)CC1 [Example 239, 1-(4-((4-((2′,4′-difluoro-4-methoxy-[1,1′-biphenyl]-3-yl)amino)-7-ethoxyquinazolin-6-yl)oxy)piperidin-1-yl)prop-2-en-1-one] | ≤ 150 | ≤ 150
11 | C=CC(=O)N1CCC(Nc2cc3c(Nc4cc(-c5ccc(F)cc5F)ccc4OC)ncnc3cc2OC(F)F)CC1 [Example 297, 1-(4-((4-((2′,4′-difluoro-4-methoxy-[1,1′-biphenyl]-3-yl)amino)-7-(difluoromethoxy)quinazolin-6-yl)amino)piperidin-1-yl)prop-2-en-1-one] | ≤ 150 | ≤ 150
12 | COc1cc2ncnc(Nc3cc(-c4ccc(F)cc4F)c(F)cc3OC)c2cc1NC(=O)/C=C/[C@H]1CCCN1C [Example 308, (R,E)-N-(7-methoxy-4-((2′,4′,6-trifluoro-4-methoxy-[1,1′-biphenyl]-3-yl)amino)quinazolin-6-yl)-3-(1-methylpyrrolidin-2-yl)acrylamide] | ≤ 150 | ≤ 150
13 | COc1cc2ncnc(Nc3cc(-c4ccco4)ccc3OC)c2cc1NC(=O)/C(F)=C\[C@@H]1CCCN1C [Example 309, (S,E)-2-fluoro-N-(4-((5-(furan-2-yl)-2-methoxyphenyl)amino)-7-methoxyquinazolin-6-yl)-3-(1-methylpyrrolidin-2-yl)acrylamide] | ≤ 150 | ≤ 150

More lines, main results first:

Row | GI50 [1] [nM] | Structure (SMILES) | GI50 [2] [nM]
14 | ≤ 150 | C=CC(=O)N1CC(Oc2cc3c(Nc4cc(-c5cccc(N(C)C)c5)ccc4OC)ncnc3cc2OC)C1 [Example 199, 1-(3-((4-((3′-(dimethylamino)-4-methoxy-[1,1′-biphenyl]-3-yl)amino)-7-methoxy-quinazolin-6-yl)oxy)azetidin-1-yl)prop-2-en-1-one] | 150 to 1000
15 | ≤ 150 | C=CC(=O)N1CCC(Oc2cc3c(Nc4cc(-c5cccc(C(=O)OC)c5)ccc4OC)ncnc3cc2OC)CC1 [Example 204, methyl 3′-((6-((1-acryloyl-piperidin-4-yl)oxy)-7-methoxy-quinazolin-4-yl)amino)-4′-methoxy-[1,1-biphenyl]-3-carboxylate] | 150 to 1000
16 | 150 to 1000 | C=CC(=O)N1CCC(Oc2cc3c(Nc4cc(-c5cccc(SC)c5)ccc4OC)ncnc3cc2OC)CC1 [Example 205, 1-(4-((7-methoxy-4-((4-methoxy-3′-(methylthio)-[1,1′-biphenyl]-3-yl)amino)quinazolin-6-yl)oxy)piperidin-1-yl)prop-2-en-1-one] | > 1000
17 | ≤ 150 | C=CC(=O)N1CCC(Oc2cc3c(Nc4cc(-c5ccc(F)c(C)c5F)ccc4OC)ncnc3cc2OC)CC1 [Example 207, 1-(4-((4-((2′,4′-difluoro-4-methoxy-3′-methyl-[1,1′-biphenyl]-3-yl)amino)-7-methoxy-quinazolin-6-yl)oxy)piperidin-1-yl)prop-2-en-1-one] | 150 to 1000
18 | 150 to 1000 | C=CC(=O)Nc1cccc(-c2ccc(OC)c(Nc3ncnc4cc(OC)c(OC5CCN(C(=O)C=C)CC5)cc34)c2)c1 [Example 208, N-(3′-((6-((1-acryloyl-piperidin-4-yl)oxy)-7-methoxy-quinazolin-4-yl)amino)-4′-methoxy-[1,1′-biphenyl]-3-yl)acrylamide] | > 1000
19 | ≤ 150 | C=CC(=O)N1CCC(Oc2cc3c(Nc4cc(-c5cccc(OC(F)(F)F)c5)ccc4OC)ncnc3cc2OC)CC1 [Example 211, 1-(4-((7-methoxy-4-((4-methoxy-3′-(trifluoro-methoxy)-[1,1′-biphenyl]-3-yl)amino)quinazolin-6-yl)oxy)piperidin-1-yl)prop-2-en-1-one] | 150 to 1000
20 | 150 to 1000 | C=CC(=O)N1CCC(Oc2cc3c(Nc4cc(C5=CCOCC5)ccc4OC)ncnc3cc2OC)CC1 [Example 216, 1-(4-((4-((5-(3,6-dihydro-2H-pyran-4-yl)-2-methoxyphenyl)amino)-7-methoxy-quinazolin-6-yl)oxy)piperidin-1-yl)prop-2-en-1-one] | 150 to 1000
21 | > 1000 | C=CC(=O)N1CC2(CC(Oc3cc4c(Nc5cc(-c6ccco6)ccc5OC)ncnc4cc3OC)C2)C1 [Example 218, 1-(6-((4-((5-(furan-2-yl)-2-methoxyphenyl)amino)-7-methoxy-quinazolin-6-yl)oxy)-2-azaspiro[3.3]heptan-2-yl)prop-2-en-1-one] | 150 to 1000
22 | 150 to 1000 | C=CC(=O)N1CCC2(CC(Oc3cc4c(Nc5cc(-c6ccco6)ccc5OC)ncnc4cc3OC)C2)C1 (stereo not shown) [Example 220, 1-(2-((4-((5-(furan-2-yl)-2-methoxyphenyl)amino)-7-methoxy-quinazolin-6-yl)oxy)-6-azaspiro[3.4]octan-6-yl)prop-2-en-1-one] | 150 to 1000
23 | > 1000 | C=CC(=O)N1CC2(CCC(Oc3cc4c(Nc5cc(-c6ccco6)ccc5OC)ncnc4cc3OC)C2)C1 (stereo not shown) [Example 221, 1-(6-((4-((5-(furan-2-yl)-2-methoxyphenyl)amino)-7-methoxy-quinazolin-6-yl)oxy)-2-azaspiro[3.4]octan-2-yl)prop-2-en-1-one] | 150 to 1000
